The source of these data is patent US6521655B1, “Substituted imidazoles useful in the treatment of inflammatory diseases” (Ortho-McNeil Pharmaceutical, Inc., priority 1997, dated 2003).

A word on the IC50: it is the concentration that inhibits the measured activity by half.

For experiment [1], the system named is TNF-α. Nature of the experiment: in vivo LPS induced TNF-α production, rats. Details: species or system rats (Lewis males). As to conditions: 25 mg/kg, oral, LPS 1 mg/kg i.p. As for the experimental part: (§1) Thirty minutes after dosing, the animals were injected intraperitoneally with LPS at 1 mg/kg and returned to their cages for 1 h. Animals were anesthetized by CO2, exsanguinated by cardiac puncture and whole blood collected (0.1-0.7 mL). The blood was allowed to clot and serum was transferred to a centrifuge tube. This sample was centrifuged, serum was collected, aliquoted and frozen at −80° C. Samples were tested by commercial ELISAs for TNF-α (Endogen for mouse TNF-α and Biosource for rat TNF-α).

Another experiment has as its system IL-1β. As to the kind of experiment: in vitro IL-1β assay, plastic-adherent cells from PBMC, LPS stimulation, ELISA. As to conditions: Homo sapiens, read-out: inhibition of production of IL-1β, IC50. It counts as cell-based. As for the experimental part: The IL-1β activity of select compounds of the invention was determined by the following in vitro assay. Plastic-adherent cells were prepared from PBMC. Briefly, PBMCs were added to the wells of a 96-well plate as above, incubated for 1 h at 37° C., and the adherent cells prepared by gently resuspending the non-adherent cells with a pipettor, removing and discarding them and gently washing the wells 3 times with 200 μL culture medium. Additional culture medium (180 μL) was added to the wells after the final wash. Compound addition, LPS stimulation, incubation and supernate harvest were as for TNF-α. Supernates were assayed for interleukin-1β using a commercial ELISA (Genzyme).
Background: ELISA stands for enzyme-linked immunosorbent assay.

Experiment [2] relates to TNF-α. As to the kind of experiment: in vitro whole cell assay, LPS-stimulated PBMC, TNF-α ELISA. It counts as cell-based. Conditions: LPS-stimulated human PBMC. On the procedure: Aside from the enzyme assay, many of the compounds of the invention were tested in an in vitro whole cell assay using peripheral blood mononuclear cells (“PBMC”) which were obtained from human blood as follows. Freshly obtained venous blood was anticoagulated with heparin, diluted with an equal volume of phosphate buffered saline (“PBS”) and placed in a sterile tube or other container. Aliquots (30 mL) of this mixture were transferred to centrifuge tubes which were underlaid with Ficoll-Hypaque (15 mL). The prepared tubes were centrifuged at 400×g without braking for 30 min at room temperature. Approximately ½ to ⅔ of the platelet layer above the mononuclear cell band was removed with a pipette. The majority of the mononuclear cell layer was carefully removed using a pipette and these PBMCs were diluted with PBS and spun at 600×g for 15 min. […] A small volume of the suspension was removed for counting on a hemocytometer and the remaining preparation was centrifuged at 200×g for 15 min at room temperature. The recovered pelleted PMBC were resuspended in RPMI/1% FCS to a concentration of 1.67×10^6/mL. To run the assay, the PBMC suspension (180 μL) was transferred to duplicate wells of a 96-well flat-bottom microtiter plate and incubated for 1 h at 37° C. […] A solution (10 μL) of LPS in RPMI/1% FCS (200 ng/mL) was added and the wells were incubated overnight at 37° C. The supernate ([…]) was removed from each well and diluted with RPMI/1% FCS (400 μL). The samples were analyzed for TNF-α using a commercial ELISA kit (Genzyme).

A further experiment has as its target T1, purified recombinant p38 (Homo sapiens, UniProt Q16539).
T1 construct: 6xHis; made in house; host or cells: E. coli
Nature of the experiment: p38 in vitro enzyme assay (33P-ATP, myelin basic protein substrate). It counts as biochemical. Conditions: for IC50: read-out: p-38 IC50. As for the experimental part:
As discussed previously, agents which inhibit the activity of the enzyme p38, inhibit the production of the inflammatory cytokines TNF-α, and IL-1β. Compounds of the invention were measured for their ability to inhibit the activity of p38 by the following in vitro assay.
A solution (38 μL) of purified recombinant p38 (where the amount of enzyme was determined empirically considering the linear range of the assay and the acceptable signal to noise ratio; 6×His-p38 expressed in E.coli), myelin basic protein substrate (also determined empirically), a buffer of pH 7.5 (Hepes:25 mM, MgCl2:10 mM, MnCl2:10 mM) were added to 92 wells of a 96-well round bottom polypropylene plate. The remaining wells were used for control (“CTRL”) and background (“BKG”). The CTRL was prepared with the enzyme, substrate buffer and 2% DMSO, and the BKG was prepared with substrate buffer and 2% DMSO. A solution (12 μL) of the test compound in DMSO (compounds were diluted to 125 μM in 10% DMSO/H2O and assayed at 25 μM where the final DMSO concentration was 2%) was added to the testing wells. The ATP/^33P-ATP solution (10 μL: containing 50 μM unlabeled ATP and 1 μCi ^33P-ATP) was added to all wells and the completed plates were mixed and incubated at 30° C. for 30 min. Ice-cold 50% TCA/10 mM sodium phosphate (60 μL) were added to each well and the plates were kept on ice for 15 min. The contents of each well were transferred to the wells of a 96-well filterplate (Millipore, MultiScreen-DP) and the filterplate was placed on a vacuum manifold, fitted with a waste collection tray. The wells were washed five times with 10% TCA/10 mM sodium phosphate (200 μL) under vacuum. MicroScint-20 scintillant was added, the plates were sealed using Topseal-S sheets and counted in a Packard TopCount scintillation counter using a ^33P liquid program with color quench correction, where the output is in color quench-corrected cpm. The % inhibition of the test compounds was calculated by the following formula: % inhibition=[1−(sample -BKG)/(CTRL-BKG)]×100.
Although compounds were initially tested at […], if warranted the compounds were tested at 4-fold increments above and below that concentration. In addition, IC50s were calculated for some compounds using the Deltagraph 4-parameter curve fitting program.

Experiment [3] concerns TNF-α. Nature of the experiment: in vivo LPS induced TNF-α production, mice. Conditions: 25 mg/kg, oral, LPS 1 mg/kg i.p. Also on record: species or system Mice (BALB/cJ females). On the procedure:
as §1

T1 sequence (Q16539 whole entry): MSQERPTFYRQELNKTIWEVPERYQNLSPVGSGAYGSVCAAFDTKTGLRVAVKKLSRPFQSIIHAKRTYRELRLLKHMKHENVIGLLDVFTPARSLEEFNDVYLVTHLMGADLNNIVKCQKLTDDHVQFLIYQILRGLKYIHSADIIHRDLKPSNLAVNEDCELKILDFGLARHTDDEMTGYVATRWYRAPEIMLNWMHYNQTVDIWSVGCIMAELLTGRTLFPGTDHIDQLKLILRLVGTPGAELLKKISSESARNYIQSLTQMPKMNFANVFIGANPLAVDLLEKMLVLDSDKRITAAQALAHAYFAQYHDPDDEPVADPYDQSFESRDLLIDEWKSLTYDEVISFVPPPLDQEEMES

As to `OCCC#Cc1nc(-c2ccc(F)cc2)c(-c2ccncc2)n1CCCc1ccccc1` [Cpd. 4], in the experiment on TNF-α [1], the “% Inhibition TNF-α Rats” value was 91%. Also, the results for the IC50 in the experiment on IL-1β, in the experiment on TNF-α [2] and at purified recombinant p38 were 7 nM, 3 nM and 650 nM, respectively. Besides, in the experiment on TNF-α [3], the “% Inhibition TNF-α Mice” value stood at 49.6%.

With `Fc1ccc(-c2[nH]c(/C=C/Cl)nc2-c2ccncc2)cc1` [compound 8], at purified recombinant p38, the IC50 stood at 1500 nM.

As for `C[Si](C)(C)CCOCn1c(C=C(Br)Br)nc(-c2ccncc2)c1-c1ccc(F)cc1` [compound 10], the p-38 % inhibition on purified recombinant p38 (@ 5 μm) is 16% @ 5 μm.

Compound `O/N=C/c1nc(-c2ccncc2)c(-c2ccc(F)cc2)[nH]1` [compound 13] yielded an IC50 with TNF-α [2] of 45 nM.

With `Fc1ccc(-c2nc(C#CCCCCl)n(CCCc3ccccc3)c2-c2ccncc2)cc1` [compound 14], in the experiment with TNF-α [2], the IC50 was 4 nM.

On to `O=C(Nc1ccccc1)OCCC#Cc1nc(-c2ccc(F)cc2)c(-c2ccncc2)n1CCCc1ccccc1` [compound 15], for which, in the experiment with TNF-α [2], half-maximal inhibition (IC50) was put at 38 nM.

`Fc1ccc(-c2nc(C#CCCCl)n(CCCc3ccccc3)c2-c2ccncc2)cc1` [compound 16]: the IC50 with TNF-α [2] is 6 nM.

For `CN(C)CCC#Cc1nc(-c2ccc(F)cc2)c(-c2ccncc2)n1CCCc1ccccc1` [compound 17], the 50% inhibitory concentration (IC50) in the experiment with TNF-α [2] was 3 nM.

`C[Si](C)(C)CCOCn1c(C=C(Br)Br)nc(-c2ccc(F)cc2)c1-c1ccncc1` [compound 18] registered an IC50 with TNF-α [2] of 1500 nM.

Take `OCCCC#Cc1nc(-c2ccc(F)cc2)c(-c2ccncc2)[nH]1` [compound 19]: the IC50 in the experiment on TNF-α [2] stood at 85 nM. In the experiment with TNF-α [3], the “% Inhibition TNF-α Mice” value was 29%.

In the case of `C[Si](C)(C)CCOCn1c(C#CCCO)nc(-c2ccncc2)c1-c1ccc(F)cc1` [compound 20], in the experiment with TNF-α [2], the IC50 was over 10000 nM.

Turning to `OCCC#Cc1nc(-c2ccc(F)cc2)c(-c2ccncc2)[nH]1` [compound 21], in the experiment on TNF-α [2], the IC50 was found to be 80 nM.

On to `O=C1c2ccccc2C(=O)N1CCCC#Cc1nc(-c2ccc(F)cc2)c(-c2ccncc2)[nH]1` [compound 22], for which the IC50 in the experiment with TNF-α [2] turned out to be 700 nM.

The compound `OCCCCC#Cc1nc(-c2ccc(F)cc2)c(-c2ccncc2)[nH]1` [compound 24] had an IC50 with TNF-α [2] of 100 nM. The “% Inhibition TNF-α Mice” value in the experiment with TNF-α [3] came to 73%.

As for `CCCC#Cc1nc(-c2ccncc2)c(-c2ccc(F)cc2)n1COCC[Si](C)(C)C` [compound 26], the IC50 with TNF-α [2] is over 2000 nM. In the experiment with TNF-α [3], the “% Inhibition TNF-α Mice” value turned out to be 0%.

Consider `CCCC#Cc1nc(-c2ccncc2)c(-c2ccc(F)cc2)[nH]1` [compound 28], for which the IC50 in the experiment on TNF-α [2] worked out at 80 nM. Further, the “% Inhibition TNF-α Mice” value with TNF-α [3] was found to be 88%.

In turn, `O=C1c2ccccc2C(=O)N1CCCC#Cc1nc(-c2ccncc2)c(-c2ccc(F)cc2)[nH]1` [compound 29] had an IC50 with TNF-α [2] of 200 nM.

Compound `C#Cc1nc(-c2ccc(F)cc2)c(-c2ccncc2)[nH]1` [compound 30] returned an IC50 in the experiment on TNF-α [2] of 150 nM.

In turn, `Fc1ccc(-c2nc(C#CBr)[nH]c2-c2ccncc2)cc1` [compound 31] displayed an IC50 in the experiment on TNF-α [2] of 250 nM.

For the compound `Fc1ccc(-c2nc(C=NOCc3ccccc3)[nH]c2-c2ccncc2)cc1` [compound 32], it took 80 nM to reach half-maximal inhibition in the experiment with TNF-α [2] (IC50).

In the experiment on TNF-α [2], `O=[N+]([O-])c1ccc(CON=Cc2nc(-c3ccc(F)cc3)c(-c3ccncc3)[nH]2)cc1` [compound 33] registered an IC50 of 150 nM.

As for `CCCC#Cc1nc(-c2ccc(F)cc2)c(-c2ccncc2)n1CCCc1ccccc1` [compound 34], the IC50 with TNF-α [2] worked out at 10 nM. In the experiment with TNF-α [3], the “% Inhibition TNF-α Mice” value is on record as 53%.

The compound `OCCCC#Cc1nc(-c2ccc(F)cc2)c(-c2ccncc2)n1CCCc1ccccc1` [compound 35] gave an IC50 with TNF-α [2] of 8 nM. Moreover, the p-38 % inhibition on purified recombinant p38 (@ 20 μm) amounted to 99% @ 20 μm. For the same compound, the “% Inhibition TNF-α Mice” value in the experiment on TNF-α [3] is recorded as 68%.

On to `N#CCCCC#Cc1nc(-c2ccc(F)cc2)c(-c2ccncc2)n1CCCc1ccccc1` [compound 36], for which the IC50 is 13 nM with IL-1β, 9 nM with TNF-α [2] and 1500 nM at purified recombinant p38. The “% Inhibition TNF-α Mice” value in the experiment with TNF-α [3] was 69.3%.

`O=C1c2ccccc2C(=O)N1CCCn1c(C#CCCO)nc(-c2ccc(F)cc2)c1-c1ccncc1` [compound 37] came in with an IC50 in the experiment with TNF-α [2] of 160 nM.

For the compound `Fc1ccc(-c2nc(C#CCCCc3ccccc3)n(CCCc3ccccc3)c2-c2ccncc2)cc1` [compound 38], in the experiment on TNF-α [2], inhibition was half-maximal at 40 nM (IC50).

In the experiment with TNF-α [2], `CCCCSCCCC#Cc1nc(-c2ccc(F)cc2)c(-c2ccncc2)n1CCCc1ccccc1` [compound 39] registered an IC50 of 200 nM.

With `CCCCS(=O)(=O)CCCC#Cc1nc(-c2ccc(F)cc2)c(-c2ccncc2)n1CCCc1ccccc1` [compound 40], inhibition with TNF-α [2] was half-maximal at 6.5 nM (IC50).

In the experiment with TNF-α [2], `OCCCCC#Cc1nc(-c2ccc(F)cc2)c(-c2ccncc2)n1CCCc1ccccc1` [compound 43] returned a 50% inhibitory concentration (IC50) of 5.2 nM. At purified recombinant p38 (@ 20 μm), the p-38 % inhibition worked out at 98% @ 20 μm. For the same compound, the “% Inhibition TNF-α Mice” value in the experiment on TNF-α [3] stood at 53%.

For `Fc1ccc(-c2nc(C=C(Br)Br)[nH]c2-c2ccncc2)cc1` [compound 44], the IC50 with TNF-α [2] was 200 nM. The p-38 % inhibition at purified recombinant p38 (@ 20 μm) is reported as 93% @ 20 μm.

In the experiment with TNF-α [2], `C[Si](C)(C)CCOCn1c(C#CCCCN2C(=O)CCC2=O)nc(-c2ccc(F)cc2)c1-c1ccncc1` [compound 45] had an IC50 of 650 nM.

As to `N#CC=Cc1nc(-c2ccc(F)cc2)c(-c2ccncc2)[nH]1` [compound 46], the IC50 in the experiment on TNF-α [2] was determined as 250 nM.

Compound `OCC#Cc1nc(-c2ccc(F)cc2)c(-c2ccncc2)n1CCCc1ccccc1` [compound 47] had an IC50 in the experiment with TNF-α [2] of 7.2 nM.

In turn, `COCCC#Cc1nc(-c2ccc(F)cc2)c(-c2ccncc2)n1CCCc1ccccc1` [compound 49] yielded an IC50 in the experiment with TNF-α [2] of 3 nM.

As to `O=C(OCCC#Cc1nc(-c2ccc(F)cc2)c(-c2ccncc2)n1CCCc1ccccc1)c1ccccc1` [compound 50], in the experiment on TNF-α [2], the midpoint of inhibition, the IC50, lay at 2 nM.

Consider `C=CC#Cc1nc(-c2ccc(F)cc2)c(-c2ccncc2)n1CCCc1ccccc1` [compound 51], for which half-maximal inhibition with TNF-α [2] (IC50) required 5.5 nM.

On to `CC(=O)OCCC#Cc1nc(-c2ccc(F)cc2)c(-c2ccncc2)n1CCCc1ccccc1` [compound 52], for which inhibition with TNF-α [2] was half-maximal at 2.6 nM (IC50).
